From patent US4761414A, “Substituted 1H-pyrimido[1,2-a-]-pyrido[3,4-e]pyrazine 6 oxides” (G. D. Searle & Co., priority 1986, dated 1988)
In brackets after ≈: the same amount, converted by molar mass. Read-outs that look alike come from different tables or passages of the source.

What was measured:
[1] = test system: Campylobacter fetus ss. jejuni NCTC 10842; assay: MIC vs panel of anaerobes; type: cell-based; details: NCTC10842, procedures of Example 40
[2] = test system: Costridium difficile NCIB 10666; assay: MIC vs panel of anaerobes; type: cell-based, C. difficile; details: Clostridioides difficile, NCIB10666, C. difficile NCIB 10666; procedures of Example 40; read-out: MIC
[3] = test system: B. fragilis MZ-R ATCC 11295; assay: MIC/MBC against Bacteroides fragilis strain D; type: cell-based; details: for MBC: ATCC11295, 99.9% reduction in viable count; for MIC: ATCC11295, 48 h, 48 hours, 37° C., anaerobic
Protocol: (§1) The screening panel utilized in this Example consisted of 5 strains of Bacteroides fragilis. All assays were carried out in 96-well microtitre plates. If an isolate was obtained from either a culture collection or clinical source, the isolate was immediately inoculated into Wilkens-Chalgren broth (Oxoid) and incubated at 37° C. in an anaerobic chamber in an atmosphere of 85% nitrogen, 10% carbon dioxide, and 5% hydrogen for 48 hours. At the end of this time, the viable count was about 10^12 organisms/ml broth. A 1 ml aliquot of each culture was placed in an ampoule and quick frozen in acetone-dry ice mixture and stored in liquid nitrogen. When an inoculum was utilized in an assay, one of the ampoules was thawed and diluted with fresh broth to yield a suspension having a count of 5×10^5 organisms/ml. A 100 μl aliquot of this suspension was inoculated into each well of the microtitre plate. A 2 mg sample of the test compound was dissolved in 0.2 ml of a suitable solvent such as dimethylsulfoxide, polyethylene glycol 200 or methanol. […] After addition of the test solution the final inoculum level was 10^5 cells/ml. The plates were incubated for 48 hours at 37° C. in the anaerobic chamber. The Minimum Inhibitory Concentration (MIC) was read visually. The MIC is defined as the lowest concentration at which there is no detectable growth. The Minimum Bactericidal Concentration (MBC) was determined by taking 50 μl aliquot from each well and placing it in fresh medium.

[4] = test system: B. fragilis NCTC 10581; assay: MIC/MBC against Bacteroides fragilis strain A (96-well microtitre plates, anaerobic chamber); type: cell-based; details: Bacteroides fragilis; for MBC: NCTC10581, 99.9% reduction in viable count; for MIC: NCTC10581, 48 h, 48 hours, 37° C., anaerobic
Protocol: as §1, with “medium. […] The strains of Bacteroides fragilis utilized in the above procedure are identified by letter in accordance with the following legend: |A B. fragilis NCTC 10581” for “medium.”

[5] = test system: Clostridium perfringens NCTC 523; assay: microbe, parasite or virus in culture; type: cell-based; details: Clostridium perfringens, NCTC523, Clostridium perfringens NCTC 523; procedures of Example 40
[6] = test system: B. fragilis WS-1; assay: MIC/MBC against Bacteroides fragilis strain E; type: cell-based; details: for MBC: WS1, 99.9% reduction in viable count; for MIC: WS1, 48 h, 48 hours, 37° C., anaerobic
Protocol: as §1, with “medium. […] The strains of Bacteroides fragilis utilized in the above procedure are identified by letter in accordance with the following legend: |E B. fragilis WS-1*” for “medium.”

[7] = test system: B. fragilis 23745; details: Bacteroides fragilis, 23745, in Mus musculus, po, 48 h, log CFU/ml liver homogenate, test compound
[8] = read-out: DOSE GIVING 1 LOG REDUCTION (molar), p.o., after infection and twice daily for 2 days
[9] = read-out: DOSE GIVING 1 LOG REDUCTION, p.o., after infection and twice daily for 2 days

Structure (SMILES) | MIC [1] | MIC [2] | MBC [3] | MIC [3] | MBC [4] | MIC [4] | MIC [5] | MBC [6] | MIC [6] | ED (1 log reduction) [7, 8] | ED (1 log reduction) [7, 9]
CC1(C)CN=C2C(c3ccccc3)=[N+]([O-])c3ccncc3N2C1 [Example 14, 2,3-Dihydro-2,2-dimethyl-5-phenyl-1H-pyrimido[1,2-a]pyrido[4,3-e]pyrazine 6-oxide] | 50 µg/mL (≈ 163 µM) | 1.5 µg/mL (≈ 4.9 µM) | 3.1 µg/mL (≈ 10.1 µM) | 3.1 µg/mL (≈ 10.1 µM) | 12.5 µg/mL (≈ 40.8 µM) | 6.2 µg/mL (≈ 20.2 µM) | 25 µg/mL (≈ 81.6 µM) | 3.1 µg/mL (≈ 10.1 µM) | 3.1 µg/mL (≈ 10.1 µM) |  | 
CC1(C)CN=C2C(c3ccccc3)=[N+]([O-])c3cnccc3N2C1 [Example 15, 2,3-Dihydro-2,2-dimethyl-5-phenyl-1H-pyrimido[1,2-a]pyrido[3,4-e]pyrazine 6-oxide] |  | 1.5 µg/mL (≈ 4.9 µM) | 1.5 µg/mL (≈ 4.9 µM) | < 0.8 µg/mL | < 0.8 µg/mL | < 0.8 µg/mL | 1.5 µg/mL (≈ 4.9 µM) | 1.5 µg/mL (≈ 4.9 µM) | < 0.8 µg/mL | 13.4 µmol/kg | 4.1 mg/kg
CC1(C)CN=C2C(c3ccccc3)=[N+]([O-])c3cccnc3N2C1 [Example 16, 2,3-Dihydro-2,2-dimethyl-5-phenyl-1H-pyrimido[1,2-a]pyrido[3,2-e]pyrazine 6-oxide] |  | < 0.8 µg/mL | 1.5 µg/mL (≈ 4.9 µM) | < 0.8 µg/mL | 3.1 µg/mL (≈ 10.1 µM) | 3.1 µg/mL (≈ 10.1 µM) | < 0.8 µg/mL | 1.5 µg/mL (≈ 4.9 µM) | < 0.8 µg/mL | 2.6 µmol/kg | 0.8 mg/kg
CC1(C)CN=C2C(c3ccc(Cl)cc3)=[N+]([O-])c3cccnc3N2C1 [Example 18, 2,3-Dihydro-5-(4-chlorophenyl)-2,2-dimethyl-1H-pyrimido[1,2-a]pyrido[3,2-e]pyrazine 6-oxide] |  | < 0.8 µg/mL | < 0.8 µg/mL | < 0.8 µg/mL | < 0.8 µg/mL | < 0.8 µg/mL | < 0.8 µg/mL | < 0.8 µg/mL | < 0.8 µg/mL | 53.4 µmol/kg | 17.4 mg/kg
Cc1ccc(C2=[N+]([O-])c3cnccc3N3CC(C)(C)CN=C23)cc1 [Example 19, 2,3-Dihydro-2,2-dimethyl-5-(4-methylphenyl)-1H-pyrimido[1,2-a]pyrido[3,4-e]pyrazine 6-oxide] | 6.2 µg/mL (≈ 19.4 µM) |  | 1.5 µg/mL (≈ 4.68 µM) | 1.5 µg/mL (≈ 4.68 µM) | 1.5 µg/mL (≈ 4.68 µM) | 1.5 µg/mL (≈ 4.68 µM) | 1.5 µg/mL (≈ 4.68 µM) | 1.5 µg/mL (≈ 4.68 µM) | 1.5 µg/mL (≈ 4.68 µM) | 4.6 µmol/kg | 1.5 mg/kg
COc1ccc(C2=[N+]([O-])c3cnccc3N3CC(C)(C)CN=C23)cc1OC [Example 21] |  |  | < 0.8 µg/mL | < 0.8 µg/mL | < 0.8 µg/mL | < 0.8 µg/mL |  | < 0.8 µg/mL | < 0.8 µg/mL | 6.8 µmol/kg | 2.5 mg/kg
CCCC1(C)CN=C2C(c3ccccc3)=[N+]([O-])c3cnccc3N2C1 (stereo not drawn) [Example 27, 2,3-Dihydro-2-methyl-5-phenyl-2-propyl-1H-pyrimido[1,2-a]pyrido[3,4-e]pyrazine 6-oxide] |  |  | 1.5 µg/mL (≈ 4.49 µM) | 1.5 µg/mL (≈ 4.49 µM) | 1.5 µg/mL (≈ 4.49 µM) | 1.5 µg/mL (≈ 4.49 µM) |  | 3.1 µg/mL (≈ 9.27 µM) | 1.5 µg/mL (≈ 4.49 µM) | 7.4 µmol/kg | 2.5 mg/kg
CCCC1(C)CN=C2C(c3ccccc3)=[N+]([O-])c3cccnc3N2C1 (stereo not drawn) [Example 28, 2,3-Dihydro-2-methyl-5-phenyl-2-propyl-1H-pyrimido[1,2-a]pyrido[3,2-e]pyrazine 6-oxide] |  |  | < 0.8 µg/mL | < 0.8 µg/mL | < 0.8 µg/mL | < 0.8 µg/mL |  | 1.5 µg/mL (≈ 4.49 µM) | < 0.8 µg/mL | 7.4 µmol/kg | 2.5 mg/kg
[O-][N+]1=C(c2ccccc2)C2=NCC3(CCCCC3)CN2c2ncccc21 [Example 29, Spiro[cyclohexane-1,2'-[2,3]-dihydro-[5]-phenyl-[1H]pyrimido[1,2-a]pyrido[3,2-e]pyrazine [6]-oxide]] | 100 µg/mL (≈ 289 µM) | < 0.8 µg/mL | < 0.8 µg/mL | < 0.8 µg/mL |  |  | 1.5 µg/mL (≈ 4.33 µM) | < 0.8 µg/mL | < 0.8 µg/mL | 10.1 µmol/kg | 3.5 mg/kg
[O-][N+]1=C(c2ccccc2)C2=NCC3(CCCCC3)CN2c2ccncc21 [Example 30, Spiro[cyclohexane-1,2'-[2,3]-dihydro-[5]-phenyl-[1H]pyrimido[1,2-a]pyrido[3,4-e]pyrazine [6]-oxide]] | 100 µg/mL (≈ 289 µM) | < 0.8 µg/mL | < 0.8 µg/mL | < 0.8 µg/mL | < 0.8 µg/mL | < 0.8 µg/mL | 6.2 µg/mL (≈ 17.9 µM) | < 0.8 µg/mL | < 0.8 µg/mL |  | 
CC1CN=C2C(c3ccccc3)=[N+]([O-])c3cccnc3N2C1 (stereo not drawn) [Example 32, 2,3-Dihydro-2-methyl-5-phenyl-1H-pyrimido[1,2-a]pyrido[3,2-e]pyrazine 6-oxide] | < 0.8 µg/mL |  | < 0.8 µg/mL | < 0.8 µg/mL | < 0.8 µg/mL | < 0.8 µg/mL | < 0.8 µg/mL | < 0.8 µg/mL | < 0.8 µg/mL | 3.3 µmol/kg | 0.95 mg/kg
CC1(C)CN=C2C(c3ccc(F)cc3)=[N+]([O-])c3cnccc3N2C1 [Example 33, 2,3-Dihydro-2,2-dimethyl-5-(4-fluorophenyl)-1H-pyrimido[1,2-a]pyrido[3,4-e]pyrazine 6-oxide] |  |  | < 0.8 µg/mL | < 0.8 µg/mL | < 0.8 µg/mL | < 0.8 µg/mL |  | < 0.8 µg/mL | < 0.8 µg/mL | 2.85 µmol/kg | 0.9 mg/kg
CC1CN=C2C(c3ccccc3)=[N+]([O-])c3cnccc3N2C1 (stereo not drawn) [Example 34, 2,3-Dihydro-2-methyl-5-phenyl-1H-pyrimido[1,2-a]pyrido[3,4-e]pyrazine 6-oxide] |  |  | < 0.8 µg/mL | < 0.8 µg/mL | < 0.8 µg/mL | < 0.8 µg/mL |  | < 0.8 µg/mL | < 0.8 µg/mL | 9.3 µmol/kg | 2.7 mg/kg
